Measured values published in US5707620A (priority 1995, dated 1998).
Entries after “also recorded” stand apart in the source; their conditions may differ. *1 amine or outer side, *2 acyl side, *3 side chain or, on linkers, in order; H or OH if unused. Where a SMILES comes first, the peptide text is derived from it. Where no end group is shown, it is not given here. [ ]: non-standard residue; d: D form. The star is where a group is joined. pNA = O=[N+]([O-])c1ccc(N*)cc1; Tos = Cc1ccc(S(=O)(=O)*)cc1; CO = O=C([*:1])[*:2]

Experiments:
Lys-gingipain [1] = target: T1, Lys-gingipain (Porphyromonas gingivalis, UniProt B2RLK2, A715G/D467N/G568E/I573V/L455V); type: biochemical
Lys-gingipain [2] = target: T1, Lys-gingipain; type: biochemical; remark: listed apart in the source
Arg-gingipain [3] = type: biochemical, Porphyromonas gingivalis
sheep red blood cells = type: cell-based
Human plasma = details: in vivo
anti-peptide antibody = details: rabbit, in vivo
anti-protein antibodies = details: rabbit, in vivo
Arg-gingipain [4] = details: cited from earlier work
Lys-gingipain [5] = target: T1, Lys-gingipain; type: biochemical; remark: listed apart in the source

CC(C)C[C@H](NC(=O)[C@H](N)C(C)C)C(=O)N[C@@H](CCCCN)C(=O)Nc1ccc([N+](=O)[O-])cc1 [HD--Val--Leu--Lys--pNa, D-Val-Leu-Lys-pNA] (H-[dV]-Leu-Lys-pNA)
Vmax (Lys-gingipain [1]): 133 mmol/min

N=C(N)c1ccc(N)cc1 [p-Aminobenzamidine]
% Activity (Lys-gingipain [2]): 100% | inhibition of Lys-gingipain activity (in words) (Lys-gingipain [2]): failed to inhibit | inhibition of Arg-gingipain (in words) (Arg-gingipain [3]): effective inhibitors

NC(N)=NCCCC(NC(=O)C1CCCN1C(=O)C(N)Cc1ccccc1)C(=O)CCl (stereo not drawn) [FPRCK, Phe-Pro-Arg-CK]
% Activity (Lys-gingipain [2]): 5% | inhibition of Lys-gingipain activity (in words) (Lys-gingipain [2]): effective inhibitors of both enzymes; also recorded: sensitivity | inhibition of Arg-gingipain (in words) (Arg-gingipain [3]): effective inhibitors of both enzymes

NCCCC[C@H](N)C(=O)O [lysine]
Hemagglutinating Titer of Gingipain-1 with effector (sheep red blood cells): NHA

NCC(=O)NCC(=O)O [Gly--Gly, Glycyl-glycine] (H-Gly-Gly-OH)
% Activity (Lys-gingipain [2]): 50% | inhibition of Lys-gingipain activity (in words) (Lys-gingipain [2]): inhibitory; also recorded: inhibited | stimulation of hydrolysis of Bz-L-Arg-pNa by Arg-gingipain (Arg-gingipain [3]): strongly stimulates

c1cnc2c(c1)ccc1cccnc12
effect on VPE by Lys-gingipain complex-treated human plasma (Human plasma): increased

CC(C)[C@H](NC(=O)[C@H](CCCNC(=N)N)NC(=O)N[C@@H](Cc1ccccc1)C(=O)O)C(=O)N[C@H](C=O)CCCNC(=N)N [Antipain] ({Phe-CO}-Arg-Val-Arg-aldehyde)
% Activity (Lys-gingipain [2]): 98% | inhibition of Lys-gingipain activity (in words) (Lys-gingipain [2]): failed to inhibit; also recorded: not sensitive to inhibition; also recorded: resistant to inhibition | inhibition of Arg-gingipain (in words) (Arg-gingipain [3]): effective inhibitors

N=C(N)NCCC[C@H](N)C(=O)O [arginine]
Hemagglutinating Titer of Culture fluid with effector (sheep red blood cells): NHA | Hemagglutinating Titer of Gingipain-1 with effector (sheep red blood cells): NHA | Hemagglutinating Titer of HGP with effector (sheep red blood cells): NHA | Hemagglutinating Titer of Lys-gingipain with effector (sheep red blood cells): NHA | effect on the hemagglutinating activity of purified fractions (in words) (sheep red blood cells): inhibited by arginine

MAP-attached peptide: first 15 N-Terminal amino acids of 60 kDa catalytic subunit attached to the multiple antigen peptide (MAP) resin (DVYTDHGDLYNTPVR; not fully specified)
anti-peptide antibody titer (anti-peptide antibody): high | antibody response against the protein (anti-protein antibodies): quite low

NCCCC[C@H](NC(=O)OCc1ccccc1)C(=O)Nc1ccc([N+](=O)[O-])cc1 [Z--L--Lys--pNa, Z-L-Lysine-p-Nitroanilide]
Vmax (Lys-gingipain [1]): 40 mmol/min

CC(C)C[C@H](NC(=O)[C@H]1O[C@@H]1C(=O)O)C(=O)NCCCCN=C(N)N [E-64, trans-epoxysuccinyl-L-leucylamide-(4-guanidino) butane]
inhibition of Arg-gingipain, previously shown (Arg-gingipain [4]): inhibit Arg-gingipain, but not in the normal equimolar manner | % Activity (Lys-gingipain [2]): 100% | inhibition of Lys-gingipain activity (in words) (Lys-gingipain [2]): failed to inhibit Lys-gingipain at all; also recorded: not sensitive to inhibition; also recorded: resistant to inhibition

[Cl-].[Cl-].[Zn+2] [ZnCl2]
inhibition of Lys-gingipain activity (in words) (Lys-gingipain [2]): failed to inhibit | inhibition of Arg-gingipain (in words) (Arg-gingipain [3]): effective inhibitors

CCN1C(=O)C=CC1=O [N-Ethylmaleimide]
inhibition of Lys-gingipain activity (in words) (Lys-gingipain [2]): inhibited

Cc1ccc(S(=O)(=O)NCC(=O)N2CCC[C@H]2C(=O)N[C@@H](CCCCN)C(=O)Nc2ccc([N+](=O)[O-])cc2)cc1 [N-p-tosyl-Gly--Pro--Lys--pNa, N-p-tosyl-Gly-Pro-Lys-pNa] (Tos-Gly-Pro-Lys-pNA)
Vmax (Lys-gingipain [1]): 215 mmol/min | ranking as substrate by ratio Vmax/Km (Lys-gingipain [1]): best substrate

N[C@@H](CS)C(=O)O [cysteine]
concentration required for full activity (Lys-gingipain [5]): 50 mM | effect on enzyme (Lys-gingipain [5]): denatured | effectiveness as reducing agent for activation of the enzyme (Lys-gingipain [5]): most effective reducing agent | time after which activity could be detected (Lys-gingipain [5]): 30 s | time to full activation (Lys-gingipain [5]): 5 min | Hemagglutinating Titer of Gingipain-1 with effector (sheep red blood cells): NHA | effect on the hemagglutinating activity of purified fractions (in words) (sheep red blood cells): no effect

NC(=O)CI [Iodoacetamide]
inhibition of Lys-gingipain activity (in words) (Lys-gingipain [2]): inhibited; also recorded: sensitivity

O=C(O)CI [Iodoacetate]
inhibition of Lys-gingipain activity (in words) (Lys-gingipain [2]): inhibited; also recorded: sensitivity

O=S(=O)(F)Cc1ccccc1 [Phenylmethylsulfonyl fluoride]
% Activity (Lys-gingipain [2]): 100% | inhibition of Lys-gingipain activity (in words) (Lys-gingipain [2]): not sensitive to inhibition; also recorded: resistant to inhibition

Cc1ccc(S(=O)(=O)N[C@@H](CCCCN)C(=O)CCl)cc1 [TLCK, tosyl-L-lysine chloromethyl ketone]
% Activity (Lys-gingipain [2]): 0% | inhibition of Lys-gingipain activity (in words) (Lys-gingipain [2]): effective inhibitors of both enzymes; also recorded: sensitivity | Hemagglutinating Titer of Gingipain-1 with effector (sheep red blood cells): NHA | effect on the hemagglutinating activity of purified fractions (in words) (sheep red blood cells): neither did treatment by the irreversible proteinase inhibitor TLCK | inhibition of Arg-gingipain (in words) (Arg-gingipain [3]): effective inhibitors of both enzymes

O=C(O)CN(CCN(CC(=O)O)CC(=O)O)CC(=O)O [EDTA, ethylenediamine-tetraacetic acid]
% Activity (Lys-gingipain [2]): 90% | inhibition of Lys-gingipain activity (in words) (Lys-gingipain [2]): failed to inhibit; also recorded: not sensitive to inhibition; also recorded: resistant to inhibition; also recorded: insensitive | inhibition of Arg-gingipain (in words) (Arg-gingipain [3]): effective inhibitors

CC(C)[C@@H](N)C(=O)N[C@@H](Cc1ccccc1)C(=O)N[C@@H](CCCCN)C(=O)Nc1ccc([N+](=O)[O-])cc1 [HD--Val--Phe--Lys--pNa, H-D-Val-Phe-Lys-pNa] (H-[dV]-Phe-Lys-pNA)
Vmax (Lys-gingipain [1]): 180 mmol/min

CN1C(=O)C=CC1=O [N-methylmaleimide]
inhibition of Lys-gingipain activity (in words) (Lys-gingipain [2]): sensitivity

CC(=O)N[C@@H](CC(C)C)C(=O)N[C@@H](CC(C)C)C(=O)N[C@H](C=O)CCCNC(=N)N [Leupeptin]
% Activity (Lys-gingipain [2]): 100% | inhibition of Lys-gingipain activity (in words) (Lys-gingipain [2]): failed to inhibit; also recorded: not sensitive to inhibition; also recorded: resistant to inhibition; also recorded: insensitive | inhibition of Arg-gingipain (in words) (Arg-gingipain [3]): effective inhibitors

B1: soybean trypsin inhibitor: soybean trypsin inhibitor (protein, UniProt P01070 25-205, looked up)
Trypsin inhibitor A: DFVLDNEGNPLENGGTYYILSDITAFGGIRAAPTGNERCPLTVVQSRNELDKGIGTIISSPYRIRFIAEGHPLSLKFDSFAVIMLCVGIPTEWSVVEDLPEGPAVKIGENKDAMDGWFRLERVSDDEFNNYKLVFCPQQAEDDKCGDIGISIDHDDGTRRLVVSKNKPLVVQFQKLDKESL
effect on VPE by Lys-gingipain complex-treated human plasma (Human plasma): inhibited
